# Patent US7560468B2, “Substituted 1,4,8-triazaspiro[4,5]decan-2-one compounds” (Gruenenthal GmbH, priority 2004, dated 2009)
# Legend:
# [1] = system: batrachotoxin (BTX) binding site of the sodium channel; test: Affinity to the batrachotoxin (BTX) binding site of the sodium channel; conditions: rat cerebrocortex synaptosomes, [3H]-batrachotoxinin A20 α-benzoate 10 nM; test concentration not given
# [2] = molecular target: T1, 5-HT transporter (Rattus norvegicus, UniProt P31652); test: Inhibition of 5-HT uptake in synaptosomes; assay type: biochemical; conditions: for inhibition at 1 µM: read-out: Uptake_5-HT, rat, 1 μM, % inhibition
# T1 construct: from tissue; host or cells: rat brain synaptosomes (marrow/medulla and pons), P2 fraction
# T1 sequence (P31652 whole entry): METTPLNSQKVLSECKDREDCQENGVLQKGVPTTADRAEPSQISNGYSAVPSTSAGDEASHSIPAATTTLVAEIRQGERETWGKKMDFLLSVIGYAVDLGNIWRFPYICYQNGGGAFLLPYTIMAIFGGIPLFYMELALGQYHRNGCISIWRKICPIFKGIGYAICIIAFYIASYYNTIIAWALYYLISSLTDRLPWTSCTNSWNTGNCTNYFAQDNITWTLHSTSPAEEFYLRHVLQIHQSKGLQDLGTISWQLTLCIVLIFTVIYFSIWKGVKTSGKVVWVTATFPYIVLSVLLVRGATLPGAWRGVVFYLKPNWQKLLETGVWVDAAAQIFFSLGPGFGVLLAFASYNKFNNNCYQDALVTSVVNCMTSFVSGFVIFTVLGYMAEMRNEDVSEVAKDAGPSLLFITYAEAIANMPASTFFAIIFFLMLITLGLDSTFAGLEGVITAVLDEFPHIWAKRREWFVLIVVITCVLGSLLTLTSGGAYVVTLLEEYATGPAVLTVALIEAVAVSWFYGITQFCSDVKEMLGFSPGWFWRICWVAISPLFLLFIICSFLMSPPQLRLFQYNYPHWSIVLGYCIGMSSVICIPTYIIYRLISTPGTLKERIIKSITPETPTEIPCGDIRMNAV
SMILES,BTX Inhibition [1],"Uptake_5-HT, rat, 1 μM, % inhibition [2]",inhibition at 1 µM [2]
"CCOC(=O)CN1C(=O)C(Cc2ccccc2)NC12CCN(S(=O)(=O)c1c(C)cc(C)cc1C)CC2 (stereo not drawn) [Example 72, Ethyl[3-benzyl-2-oxo-8-(2,4,6-trimethylbenzolsulfonyl)-1,4,8-triazaspiro[4,5]dec-1-yl]-acetate]",75,75%,–
"CCOC(=O)CN1C(=O)C(Cc2ccccc2)NC12CCN(S(=O)(=O)c1cc(OC)ccc1OC)CC2 (stereo not drawn) [Example 74, Ethyl[3-benzyl-8-(2,5-dimethoxy-benzolsulfonyl)-2-oxo-1,4,8-triazaspiro[4,5]dec-1-yl]-acetate]",30,74%,–
"CSCCC1NC2(CCN(S(=O)(=O)N(C)C)CC2)N(Cc2ccc3ccccc3c2)C1=O (stereo not drawn) [Example 75, 3-(2-Methylsulfanylethyl)-1-naphthalin-2-ylmethyl-2-oxo-1,4,8-triazaspiro[4,5]decan-8-sulfonic acid dimethylamide]",62,–,74%
"CC(C)C1NC2(CCN(S(=O)(=O)c3ccc4c(c3)CN(C(=O)C(F)(F)F)CC4)CC2)N(Cc2cccc(C#N)c2)C1=O (stereo not drawn) [Example 77, 3-{3-Isopropyl-2-oxo-8-[2-(2,2,2-trifluoroacetyl)-1,2,3,4-tetrahydroisoquinolin-7-sulfonyl]-1,4,8-triazaspiro[4,5]dec-1-ylmethyl}-benzonitrile]",36,–,32%
"C=CCN1C(=O)C(CCSC)NC12CCN(S(=O)(=O)c1c(C)cc(OC)c(C)c1C)CC2 (stereo not drawn) [Example 79, 1-Allyl-8-(4-methoxy-2,3,6-trimethylbenzolsulfonyl)-3-(2-methylsulfanylethyl)-1,4,8-triazaspiro[4,5]decan-2-one]",67,37%,–
"CCOC(=O)CN1C(=O)C(Cc2ccccc2)NC12CCN(S(=O)(=O)c1ccccc1C(=O)OC)CC2 (stereo not drawn) [Example 80, Methyl 2-(3-benzyl-1-ethoxycarbonylmethyl-2-oxo-1,4,8-triazaspiro[4,5]decan-8-sulfonyl)benzoate]",33,–,84%
"O=C1C(Cc2ccccc2)NC2(CCN(S(=O)(=O)c3ccccc3C(F)(F)F)CC2)N1Cc1ccccc1F (stereo not drawn) [Example 81, 3-Benzyl-1-(2-fluorobenzyl)-8-(2-trifluoromethylbenzolsulfonyl)-1,4,8-triazaspiro[4,5]decan-2-one]",87,81%,–
"CC(C)CC1NC2(CCN(C(=S)Nc3ccc(F)cc3)CC2)NC1=O (stereo not drawn) [Example 112, 2-Isobutyl-3-oxo-1,4,8-triazaspiro[4,5]decan-8-thiocarboxylic acid (4-fluorobenzol)amide]",30,31%,–
"CCCCN1C(=O)C(C(C)C)NC12CCN(C(=S)Nc1ccccc1)CC2 (stereo not drawn) [Example 116, 1-Butyl-3-isopropyl-2-oxo-1,4,8-triazaspiro[4,5]decan-8-thiocarboxylic acid benzolamide]",30,40%,–
"CCCCN1C(=O)C(C(C)C)NC12CCN(C(=S)Nc1cc(Cl)ccc1Cl)CC2 (stereo not drawn) [Example 117, 1-Butyl-3-isopropyl-2-oxo-1,4,8-triazaspiro[4,5]decan-8-thiocarboxylic acid (2,5-dichlorobenzol)amide]",44,33%,–
"CCCCN1C(=O)C(CCSC)NC12CCN(C(=S)Nc1cc(Cl)ccc1Cl)CC2 (stereo not drawn) [Example 120, 1-Butyl-3-(2-methylsulfanylethyl)-2-oxo-1,4,8-triazaspiro[4,5]decan-8-thiocarboxylic acid (2,5-dichlorobenzol)amide]",49,58%,–
"COCCNC(=S)N1CCC2(CC1)NC(CCSC)C(=O)N2Cc1ccc2ccccc2c1 (stereo not drawn) [Example 121, 3-(2-Methylsulfanylethyl)-1-naphthalin-2-ylmethyl-2-oxo-1,4,8-triazaspiro[4,5]decan-8-thiocarboxylic acid (2-methoxy-ethyl)amide]",47,–,39%
"CCCCN1C(=O)C(C(C)C)NC12CCN(C(=S)Nc1ccccc1F)CC2 (stereo not drawn) [Example 122, 1-Butyl-3-isopropyl-2-oxo-1,4,8-triazaspiro[4,5]decan-8-thiocarboxylic acid (2-fluorobenzol)amide]",35,32%,–
"CCCCN1C(=O)C(C(C)C)NC12CCN(C(=S)Nc1cccc(C)c1)CC2 (stereo not drawn) [Example 124, 1-Butyl-3-isopropyl-2-oxo-1,4,8-triazaspiro[4,5]decan-8-thiocarboxylic acid m-tolylamide]",41,–,47%
"C=CCN1C(=O)C(C(C)C)NC12CCN(C(=S)Nc1cc(F)ccc1F)CC2 (stereo not drawn) [Example 128, 1-Allyl-3-isopropyl-2-oxo-1,4,8-triazaspiro[4,5]decan-8-thiocarboxylic acid (2,5-difluorobenzol)amide]",33,57%,–
"C=CCNC(=S)N1CCC2(CC1)NC(CCSC)C(=O)N2Cc1ccccc1C#N (stereo not drawn) [Example 129, 1-(2-Cyanobenzyl)-3-(2-methylsulfanylethyl)-2-oxo-1,4,8-triazaspiro[4,5]decan-8-thiocarboxylic acid allylamide]",36,–,41%
"CCCCN1C(=O)C(CCSC)NC12CCN(C(=S)NCC1CCCCC1)CC2 (stereo not drawn) [Example 132, 1-Butyl-3-(2-methylsulfanylethyl)-2-oxo-1,4,8-triazaspiro[4,5]decan-8-thiocarboxylic acid cyclohexylmethylamide]",71,–,30%
"CC(C)C1NC2(CCN(C(=S)Nc3cc(Cl)ccc3Cl)CC2)N(Cc2ccccc2)C1=O (stereo not drawn) [Example 136, 1-Benzyl-3-isopropyl-2-oxo-1,4,8-triazaspiro[4,5]decan-8-thiocarboxylic acid (2,5-dichlorobenzol)amide]",66,44%,–
"CSCCC1NC2(CCN(C(=S)Nc3ccc(C(C)C)cc3)CC2)N(Cc2ccccc2)C1=O (stereo not drawn) [Example 139, 1-Benzyl-3-(2-methylsulfanylethyl)-2-oxo-1,4,8-triazaspiro[4,5]decan-8-thiocarboxylic acid (4-isopropylbenzol)amide]",97,63%,–
"CSCCC1NC2(CCN(C(=S)Nc3cc(F)ccc3F)CC2)N(Cc2ccccc2)C1=O (stereo not drawn) [Example 140, 1-Benzyl-3-(2-methylsulfanylethyl)-2-oxo-1,4,8-triazaspiro[4,5]decan-8-thiocarboxylic acid (2,5-difluorobenzol)amide]",53,59%,–
"CCCCN1C(=O)C(C(C)C)NC12CCN(C(=S)Nc1ccccc1C(=O)OC)CC2 (stereo not drawn) [Example 143, Methyl 2-[(1-butyl-3-isopropyl-2-oxo-1,4,8-triazaspiro[4,5]decan-8-carbothioyl)amino]-benzoate]",51,–,32%
"CCOC(=O)CN1C(=O)C(Cc2ccccc2)NC12CCN(C(=S)Nc1ccccc1C(=O)OC)CC2 (stereo not drawn) [Example 145, Methyl 2-[(3-benzyl-1-ethoxycarbonylmethyl-2-oxo-1,4,8-triazaspiro[4,5]decan-8-carbothioyl)amino]-benzoate]",69,–,67%
"CCOC(=O)NC(=S)N1CCC2(CC1)NC(CCSC)C(=O)N2Cc1ccccc1C#N (stereo not drawn) [Example 146, Ethyl[1-(2-cyanobenzyl)-3-(2-methylsulfanylethyl)-2-oxo-1,4,8-triazaspiro[4,5]decan-8-carbothioyl]-carbamate]",30,–,30%
"CSCCC1NC2(CCN(C(=S)NC(C)c3ccccc3)CC2)N(Cc2ccc3ccccc3c2)C1=O (stereo not drawn) [Example 148, 3-(2-Methylsulfanylethyl)-1-naphthalin-2-ylmethyl-2-oxo-1,4,8-triazaspiro[4,5]decan-8-thiocarboxylic acid (1-benzol-ethyl)amide]",88,49%,–
"CC(C)C1NC2(CCN(C(=S)Nc3cc(Cl)cc(Cl)c3)CC2)N(Cc2ccccc2)C1=O (stereo not drawn) [Example 177, 1-Benzyl-3-isopropyl-2-oxo-1,4,8-triazaspiro[4,5]decan-8-thiocarboxylic acid (3,5-dichlorobenzol)amide]",46,36%,–
"CSCCC1NC2(CCN(C(=S)Nc3ccccc3C)CC2)N(Cc2ccc(F)cc2)C1=O (stereo not drawn) [Example 186, 1-(4-Fluorobenzyl)-3-(2-methylsulfanylethyl)-2-oxo-1,4,8-triazaspiro[4,5]decan-8-thiocarboxylic acid o-tolylamide]",52,–,55%
"CSCCC1NC2(CCN(C(=S)Nc3cccc(C#N)c3)CC2)N(Cc2ccc(F)cc2)C1=O (stereo not drawn) [Example 192, 1-(4-Fluorobenzyl)-3-(2-methylsulfanylethyl)-2-oxo-1,4,8-triazaspiro[4,5]decan-8-thiocarboxylic acid (3-cyanobenzol)amide]",35,38%,–
"CCOc1ccc(NC(=S)N2CCC3(CC2)NC(CCSC)C(=O)N3Cc2ccc(F)cc2)cc1 (stereo not drawn) [Example 200, 1-(4-Fluorobenzyl)-3-(2-methylsulfanylethyl)-2-oxo-1,4,8-triazaspiro[4,5]decan-8-thiocarboxylic acid (4-ethoxy-benzol)amide]",30,30%,–
"CC(=O)c1cccc(NC(=S)N2CCC3(CC2)NC(Cc2ccccc2)C(=O)N3Cc2ccccc2F)c1 (stereo not drawn) [Example 201, 3-Benzyl-1-(2-fluorobenzyl)-2-oxo-1,4,8-triazaspiro[4,5]decan-8-thiocarboxylic acid (3-acetylbenzol)amide]",63,54%,–
"CN1C(=O)C(Cc2ccccc2)NC12CCN(C(=O)NC1CCCCC1)CC2 (stereo not drawn) [Example 202, 3-Benzyl-1-methyl-2-oxo-1,4,8-triazaspiro[4,5]decan-8-carboxylic acid cyclohexylamide]",56,–,34%
